Results reported in article PMC10215302 (Antibiotics, 2023).
In brackets after ≈: the same amount, converted by molar mass. Read-outs that look alike come from different tables or passages of the source.

Assays:
Assay in all cases: microbe, parasite or virus in culture
Details in all cases: Staphylococcus aureus
S. aureus SA0422 = test system: S. aureus SA0422
S. aureus SA0085 = test system: S. aureus SA0085
S. aureus SA0736 = test system: S. aureus SA0736
S. aureus ATCC 29213 = test system: S. aureus ATCC 29213
S. aureus SA0077 = test system: S. aureus SA0077
[1] = SA0422, read-out: MIC values, Table S1: SA0422 DAP (derivative after 40 passages on daptomycin)
[2] = SA0422, read-out: MIC values, Table S1: SA0422 VAN (derivative after 40 passages on vancomycin)
[3] = SA0085, read-out: MIC values, Table S1: SA0085 VAN (derivative after 40 passages on vancomycin)
[4] = SA0736, read-out: MIC values, Table S1: SA0736 DAP-W (40 passages on daptomycin, white colonies)
[5] = SA0736, read-out: MIC values, Table S1: SA0736 VAN (derivative after 40 passages on vancomycin)
[6] = ATCC29213, read-out: MIC values
[7] = SA0077, read-out: MIC values, Table S1: SA0077 Abf (passages on antibiotic-free media)
[8] = SA0077, read-out: MIC values, Table S1: SA0077 VAN (derivative after 40 passages on vancomycin)
[9] = ATCC29213, read-out: MIC values, Table S1: ATCC 29213 DAP (derivative after 40 passages on daptomycin)
[10] = ATCC29213, read-out: MIC values, Table S1: ATCC 29213 VAN (derivative after 40 passages on vancomycin)
[11] = SA0077, read-out: MIC values, Table S1: SA0077 DAP (derivative after 40 passages on daptomycin)

Structure (SMILES) | MIC (S. aureus SA0422; SA0422, read-out: MIC values) [µg/mL] | MIC (S. aureus SA0422; [1]) [µg/mL] | MIC (S. aureus SA0422; [2]) [µg/mL] | MIC (S. aureus SA0085; SA0085, read-out: MIC values) [µg/mL] | MIC (S. aureus SA0085; [3]) [µg/mL] | MIC (S. aureus SA0736; SA0736, read-out: MIC values) [µg/mL] | MIC (S. aureus SA0736; [4]) [µg/mL] | MIC (S. aureus SA0736; SA0736, read-out: MIC values, Table S1: SA0736 DAP-Y (40 passages on daptomycin, yellow colonies)) [µg/mL] | MIC (S. aureus SA0736; [5]) [µg/mL] | MIC (S. aureus ATCC 29213; [6]) [µg/mL] | MIC (S. aureus SA0077; SA0077, read-out: MIC values) [µg/mL] | MIC (S. aureus SA0077; [7]) [µg/mL] | MIC (S. aureus SA0077; [8]) [µg/mL] | MIC (S. aureus ATCC 29213; [9]) [µg/mL] | MIC (S. aureus ATCC 29213; [10]) [µg/mL] | MIC (S. aureus SA0077; [11]) [µg/mL] | MIC (S. aureus SA0085; SA0085, read-out: MIC values, Table S1: SA0085 DAP (derivative after 40 passages on daptomycin)) [µg/mL]
O=C(O)c1cn(C2CC2)c2cc(N3CCNCC3)c(F)cc2c1=O [Ciprofloxacin] | 128 (≈ 386 µM) | 32 (≈ 96.6 µM) | 64 (≈ 193 µM) | 256 (≈ 773 µM) | 32 (≈ 96.6 µM) | 128 (≈ 386 µM) | 64 (≈ 193 µM) | 32 (≈ 96.6 µM) | 16 (≈ 48.3 µM) | 0.25 (≈ 0.754 µM) | 16 (≈ 48.3 µM) | 32 (≈ 96.6 µM) | 64 (≈ 193 µM) | – | – | – | –
CCC[C@@H]1C[C@@H](C(=O)N[C@@H]([C@H]2O[C@H](SC)[C@H](O)[C@@H](O)[C@H]2O)[C@H](C)Cl)N(C)C1 [Clindamycin] | 0.06 (≈ 0.141 µM) | – | – | > 64 | – | 0.06 (≈ 0.141 µM) | – | – | – | 0.06 (≈ 0.141 µM) | > 64 | – | – | – | – | – | –
CC[C@H]1OC(=O)[C@H](C)[C@@H](O[C@H]2C[C@@](C)(OC)[C@@H](O)[C@H](C)O2)[C@H](C)[C@@H](O[C@@H]2O[C@H](C)C[C@H](N(C)C)[C@H]2O)[C@](C)(O)C[C@@H](C)C(=O)[C@H](C)[C@@H](O)[C@]1(C)O [Erythromycin] | 0.125 (≈ 0.17 µM) | – | 0.5 (≈ 0.681 µM) | > 128 | – | 0.125 (≈ 0.17 µM) | – | – | 0.5 (≈ 0.681 µM) | 0.25 (≈ 0.341 µM) | > 128 | – | – | 0.125 (≈ 0.17 µM) | 0.5 (≈ 0.681 µM) | – | –
CC(=O)O[C@H]1C[C@@]2(C)[C@@H](C[C@@H](O)[C@H]3[C@@]4(C)CC[C@@H](O)[C@@H](C)[C@@H]4CC[C@@]32C)/C1=C(\CCC=C(C)C)C(=O)O [Fusidic acid] | 0.125 (≈ 0.242 µM) | 0.06 (≈ 0.116 µM) | 0.06 (≈ 0.116 µM) | 0.125 (≈ 0.242 µM) | – | 0.06 (≈ 0.116 µM) | – | – | 0.125 (≈ 0.242 µM) | 0.25 (≈ 0.484 µM) | 0.06 (≈ 0.116 µM) | – | – | 0.125 (≈ 0.242 µM) | – | – | –
CNC(C)C1CCC(N)C(OC2C(N)CC(N)C(OC3OCC(C)(O)C(NC)C3O)C2O)O1 (stereo not drawn) [Gentamicin] | > 128 | – | – | > 128 | – | > 128 | – | – | – | 1 (≈ 2.09 µM) | > 128 | – | – | 0.25 (≈ 0.523 µM) | – | – | –
CC(=O)NC[C@H]1CN(c2ccc(N3CCOCC3)c(F)c2)C(=O)O1 [Linezolid] | 2 (≈ 5.93 µM) | 1 (≈ 2.96 µM) | – | 4 (≈ 11.9 µM) | 1 (≈ 2.96 µM) | 1 (≈ 2.96 µM) | – | – | 2 (≈ 5.93 µM) | 2 (≈ 5.93 µM) | 1 (≈ 2.96 µM) | – | – | 1 (≈ 2.96 µM) | – | – | –
COc1c(N2C[C@@H]3CCCN[C@@H]3C2)c(F)cc2c(=O)c(C(=O)O)cn(C3CC3)c12 [Moxifloxacin] | 2 (≈ 4.98 µM) | – | – | 8 (≈ 19.9 µM) | – | 2 (≈ 4.98 µM) | 4 (≈ 9.96 µM) | – | 4 (≈ 9.96 µM) | 0.125 (≈ 0.311 µM) | 2 (≈ 4.98 µM) | – | 4 (≈ 9.96 µM) | – | – | – | –
C/C(=C\C(=O)OCCCCCCCCC(=O)O)C[C@@H]1OC[C@H](C[C@@H]2O[C@H]2[C@@H](C)[C@H](C)O)[C@@H](O)[C@H]1O [Mupirocin] | 1 (≈ 2 µM) | – | – | 1 (≈ 2 µM) | – | 1 (≈ 2 µM) | 0.5 (≈ 0.999 µM) | – | – | 1 (≈ 2 µM) | 0.5 (≈ 0.999 µM) | 1 (≈ 2 µM) | 1 (≈ 2 µM) | – | – | – | –
CO[C@H]1/C=C/O[C@@]2(C)Oc3c(C)c(O)c4c(O)c(c(/C=N/N5CCN(C)CC5)c(O)c4c3C2=O)NC(=O)/C(C)=C\C=C\[C@H](C)[C@H](O)[C@@H](C)[C@@H](O)[C@@H](C)[C@H](OC(C)=O)[C@@H]1C [Rifampicin] | 0.004 (≈ 0.00486 µM) | – | – | > 4 | – | 0.004 (≈ 0.00486 µM) | – | – | 0.016 (≈ 0.0194 µM) | 0.004 (≈ 0.00486 µM) | 0.004 (≈ 0.00486 µM) | – | – | – | – | – | –
Cn1nnc(-c2ccc(-c3ccc(N4C[C@H](CO)OC4=O)cc3F)cn2)n1 [Tedizolid] | 0.25 (≈ 0.675 µM) | 0.125 (≈ 0.338 µM) | – | 0.5 (≈ 1.35 µM) | 0.06 (≈ 0.162 µM) | 0.125 (≈ 0.338 µM) | – | – | – | 0.25 (≈ 0.675 µM) | 0.25 (≈ 0.675 µM) | 0.125 (≈ 0.338 µM) | 0.125 (≈ 0.338 µM) | – | – | 0.125 (≈ 0.338 µM) | –
CN(C)[C@@H]1C(O)=C(C(N)=O)C(=O)[C@@]2(O)C(O)=C3C(=O)c4c(O)cccc4[C@@](C)(O)[C@H]3C[C@@H]12 [Tetracycline] | 0.06 (≈ 0.135 µM) | – | 0.125 (≈ 0.281 µM) | 32 (≈ 72 µM) | 0.125 (≈ 0.281 µM) | 16 (≈ 36 µM) | – | – | – | 0.125 (≈ 0.281 µM) | 0.06 (≈ 0.135 µM) | – | – | 0.06 (≈ 0.135 µM) | 0.5 (≈ 1.13 µM) | – | 16 (≈ 36 µM)
CN(C)c1cc(NC(=O)CNC(C)(C)C)c(O)c2c1C[C@H]1C[C@H]3[C@H](N(C)C)C(O)=C(C(N)=O)C(=O)[C@@]3(O)C(O)=C1C2=O [Tigecycline] | 0.125 (≈ 0.213 µM) | 0.06 (≈ 0.102 µM) | – | 0.125 (≈ 0.213 µM) | – | 0.06 (≈ 0.102 µM) | – | – | 0.125 (≈ 0.213 µM) | 0.03 (≈ 0.0512 µM) | 0.25 (≈ 0.427 µM) | 0.06 (≈ 0.102 µM) | 0.06 (≈ 0.102 µM) | 0.016 (≈ 0.0273 µM) | 0.06 (≈ 0.102 µM) | 0.06 (≈ 0.102 µM) | –
